Experimental data from PMC7569237 (Translational Oncology, 2020).

Assay: Plasma and tumor levels in MIA PaCa-2 tumor-bearing nude mice
Assay type: in vivo
Details: MIA PaCa-2-bearing mice, CPT-11 10 mg/kg iv; SN38 = released from CPT-11

Time within which concentrations rapidly decreased in plasma and tumor [h] | Structure (SMILES)
≤ 48 | CCc1c2c(nc3ccc(OC(=O)N4CCC(N5CCCCC5)CC4)cc13)-c1cc3c(c(=O)n1C2)COC(=O)[C@]3(O)CC [CPT-11, 7-ethyl-10-[4-(1-piperidino)-1-piperidino]carbonyloxycamptothecin]
≤ 48 | CCc1c2c(nc3ccc(O)cc13)-c1cc3c(c(=O)n1C2)COC(=O)[C@]3(O)CC [SN38, 7-ethyl-10-hydroxycamptothecin]
